Assay [1] concerns Nucleic Acid. The assay is described as follows: Induction of DNA methylation at calf thymus DNA assessed as 3-MeA adduct level per mol of DNA at 50 uM after 24 hrs by reverse phase HPLC. The class given is nucleic-acid assay. The settings on record: Bos taurus.
The test system of assay [2] is Nucleic Acid. The assay is described as follows: Induction of DNA methylation at calf thymus DNA assessed as 3-MeA adduct level per mol of DNA at 50 uM after 24 hrs by reverse phase HPLC in presence of 100 uM netropsin. The class given is nucleic-acid assay. As to conditions: Bos taurus.
The test system of assay [3] is Nucleic Acid. The assay can be described thus: Induction of DNA methylation at calf thymus DNA assessed as 7-MeG adduct level per mol of DNA at 50 uM after 24 hrs by reverse phase HPLC. As to conditions: Bos taurus. Type of assay: nucleic-acid assay.
Assay [4] deals with Nucleic Acid. The assay is described as follows: Induction of DNA methylation at calf thymus DNA assessed as 7-MeG adduct level per mol of DNA at 50 uM after 24 hrs by reverse phase HPLC in presence of 100 uM netropsin. Type of assay: nucleic-acid assay. The settings on record: Bos taurus.
For assay [5], the system named is Nucleic Acid. The assay is described as follows: Induction of DNA methylation at calf thymus DNA assessed as total adduct level at 500 uM after 24 hrs by reverse phase HPLC relative to methylmethane sufonate. Type of assay: nucleic-acid assay. As to conditions: Bos taurus.
The subject of assay [6] is Nucleic Acid. The assay can be described thus: Induction of DNA methylation at calf thymus DNA assessed as 3-MeA level at 500 uM after 24 hrs by reverse phase HPLC relative to methylmethane sufonate. Type of assay: nucleic-acid assay. The settings on record: Bos taurus.
Assay [7] deals with Nucleic Acid. The assay is described as follows: Induction of DNA methylation at calf thymus DNA assessed as 7-MeG level at 500 uM after 24 hrs by reverse phase HPLC relative to methylmethane sufonate. Type of assay: nucleic-acid assay. As to conditions: Bos taurus.
The test system of assay [8] is MCF7. The assay can be described thus: Cytotoxicity against human MCF7 cells after 16 hrs by MTT assay. Type of assay: functional, cell-based. As to conditions: MCF7, 16 h.
Assay [9] concerns MCF7. The assay can be described thus: Ratio of methylmethane sufonate EC50 to compound EC50 for human MCF7 cells after 16 hrs by MTT assay. The class given is functional.
The subject of assay [10] is MCF7. The assay is described as follows: Cytotoxicity against human MCF7 cells at 250 uM after 16 hrs by MTT assay pretreated with 250 uM fulvestrant. Type of assay: functional, cell-based. A general note: Formazan colour is commonly taken as a measure of viable cells.
Assay [11] deals with MCF7. The assay is described as follows: Cytotoxicity against human MCF7 cells after 16 hrs by MTT assay pretreated with 100 uM netropsin. Type of assay: functional, cell-based.
Assay [12] deals with MCF7. The assay is described as follows: Ratio of Me-lex EC50 to compound EC50 for human MCF7 cells after 16 hrs by MTT assay. Type of assay: functional.
For assay [13], the system named is MCF7. The assay can be described thus: Ratio of EC50 for human MCF7 cells pretreated with 100 uM netropsin to compound EC50 for human MCF7 cells. Type of assay: functional.
Assay [14] concerns Nucleic Acid. The assay is described as follows: Induction of DNA methylation at calf thymus DNA assessed as 3-MeA adduct level per mol of DNA after 24 hrs by reverse phase HPLC. As to conditions: Bos taurus. Type of assay: nucleic-acid assay.
Assay [15] has as its system Nucleic Acid. The assay can be described thus: Induction of DNA methylation at calf thymus DNA assessed as 7-MeG adduct level per mol of DNA after 24 hrs by reverse phase HPLC. The class given is nucleic-acid assay. The settings on record: Bos taurus.
The test system of assay [16] is Nucleic Acid. The assay can be described thus: Induction of DNA methylation at calf thymus DNA assessed as 3-MeA adduct level per mol of DNA at 100 uM after 24 hrs by reverse phase HPLC in presence of 100 uM netropsin. As to conditions: Bos taurus. The class given is nucleic-acid assay.
The subject of assay [17] is Nucleic Acid. The assay is described as follows: Induction of DNA methylation at calf thymus DNA assessed as 7-MeG adduct level per mol of DNA at 100 uM after 24 hrs by reverse phase HPLC. The class given is nucleic-acid assay. The settings on record: Bos taurus.
For assay [18], the system named is Nucleic Acid. The assay can be described thus: Induction of DNA methylation at calf thymus DNA assessed as 7-MeG adduct level per mol of DNA at 100 uM after 24 hrs by reverse phase HPLC in presence of 100 uM netropsin. The class given is nucleic-acid assay. As to conditions: Bos taurus.
Assay [19] deals with T1, Estrogen receptor (Homo sapiens) (UniProt P03372).
T1 sequence (whole entry): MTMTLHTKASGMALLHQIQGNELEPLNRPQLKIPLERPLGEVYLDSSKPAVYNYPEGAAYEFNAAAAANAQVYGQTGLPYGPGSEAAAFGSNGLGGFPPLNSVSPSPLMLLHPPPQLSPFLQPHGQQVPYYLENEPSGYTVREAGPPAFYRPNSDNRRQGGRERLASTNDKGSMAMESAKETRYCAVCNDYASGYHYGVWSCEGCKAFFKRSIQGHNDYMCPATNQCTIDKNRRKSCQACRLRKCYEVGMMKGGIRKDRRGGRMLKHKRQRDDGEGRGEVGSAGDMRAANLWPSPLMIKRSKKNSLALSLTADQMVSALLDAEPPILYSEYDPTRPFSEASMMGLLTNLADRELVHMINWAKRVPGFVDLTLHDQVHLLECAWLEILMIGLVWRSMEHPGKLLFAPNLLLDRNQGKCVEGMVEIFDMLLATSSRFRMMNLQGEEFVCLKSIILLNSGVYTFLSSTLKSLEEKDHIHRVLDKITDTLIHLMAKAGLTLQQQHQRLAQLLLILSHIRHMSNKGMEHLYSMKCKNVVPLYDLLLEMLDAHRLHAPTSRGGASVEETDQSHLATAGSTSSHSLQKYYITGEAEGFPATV
The assay can be described thus: (§1) Binding affinity to estrogen receptor-alpha after 2 hrs by TR-FRET assay.

Another assay deals with T2, Estrogen receptor (Homo sapiens, UniProt P03372).
T2 sequence (P03372 whole entry): T1 sequence (whole entry)
The assay is described as §1.

The test system of assay [20] is MCF7. The assay can be described thus: Cytotoxicity against human MCF7 cells at 500 uM after 16 hrs by MTT assay. Type of assay: functional, cell-based.
The subject of assay [21] is Nucleic Acid. The assay is described as follows: Induction of DNA methylation at calf thymus DNA assessed as 3-MeA adduct level per mol of DNA at 5000 uM after 24 hrs by reverse phase HPLC. The class given is nucleic-acid assay. The settings on record: Bos taurus.
The test system of assay [22] is Nucleic Acid. The assay is described as follows: Induction of DNA methylation at calf thymus DNA assessed as 3-MeA adduct level per mol of DNA at 5000 uM after 24 hrs by reverse phase HPLC in presence of 100 uM netropsin. Type of assay: nucleic-acid assay. As to conditions: Bos taurus.

Calls of active or inactive are those of the source. The calls are words filed in the database; no cut-off is given here.

We go through 4 compounds from ChEMBL document CHEMBL1817587, “DNA site-specific N3-adenine methylation targeted to estrogen receptor-positive cells” (Bioorg Med Chem, 2011).

Broadly, the EC50 is the midpoint of the concentration-response curve. As usually defined, the IC50 is the concentration that inhibits the measured activity by half.

Take `COS(=O)(=O)CCC(=O)Nc1cc(C(=O)Nc2cc(C(=O)NCCCC(=O)NCCCCCC[C@@H]3Cc4cc(O)ccc4[C@H]4CC[C@]5(C)[C@@H](O)CC[C@H]5[C@H]34)n(C)c2)n(C)c1`: the Activity came to 1760 µmol in the assay with Nucleic Acid [1]; 167 µmol with Nucleic Acid [2]; 280 µmol in the assay on Nucleic Acid [3]; 279 µmol in the assay on Nucleic Acid [4]; 86% with Nucleic Acid [14]; 14% with Nucleic Acid [15]. The fold change (FC) in the assay with Nucleic Acid [5] was 11; with Nucleic Acid [6], 98; in the assay on Nucleic Acid [7], 1.5. Further, the EC50 came out at 135 µM in the assay with MCF7 [8] and 479 µM with MCF7 [11]. In addition, the “Ratio EC50” value with MCF7 [9] was determined as 20; in the assay with MCF7 [12] it was 1.5; with MCF7 [13], 3. Moreover, the result with MCF7 [10] was inactive.

Regarding `CCCNC(=O)CCCNC(=O)c1cc(NC(=O)c2cc(NC(=O)CCS(=O)(=O)OC)cn2C)cn1C`, the Activity amounted to 657 µmol in the assay on Nucleic Acid [16]; 496 µmol in the assay with Nucleic Acid [17]; 614 µmol in the assay with Nucleic Acid [18]; 96% in the assay with Nucleic Acid [14]; 90% in the assay on Nucleic Acid [15]. Besides, the fold change (FC) in the assay with Nucleic Acid [5] came to 37; with Nucleic Acid [6], 391; with Nucleic Acid [7], 1.4. Moreover, in the assay on MCF7 [8], the midpoint of the response, the EC50, lay at 214 µM.

Turning to `Cn1cc(NC(=O)c2cc(NC(=O)CCS(C)(=O)=O)cn2C)cc1C(=O)NCCCC(=O)NCCCCCC[C@@H]1Cc2cc(O)ccc2[C@H]2CC[C@]3(C)[C@@H](O)CC[C@H]3[C@H]12`, the RBA in assay [19] was found to be 51%. On Estrogen receptor, this compound registered an IC50 of 0.00111 µM. Further, the outcome in the assay with MCF7 [20] was inactive.

`COS(C)(=O)=O` [METHANESULFONIC ACID METHYL ESTER]: the Activity with Nucleic Acid [21] worked out at 1800 µmol; in the assay with Nucleic Acid [22] it was 1240 µmol; with Nucleic Acid [14], 9%. The compound further yielded an EC50 with MCF7 [8] of 2750 µM.
